Source: US9642941B2, “Implantable modular hydrogel for salivary gland restoration” (WILLIAM MARSH RICE UNIVERSITY, priority 2011, dated 2017)
Where a name gives a salt, the structure may show the parent alone.

Tests used:
[1] = biological target: T1, M3 muscarinic receptors (Homo sapiens, UniProt P20309); experiment: Intracellular calcium release (Fluo-4) in acini-like structures on 2.5D / in 3D HA hydrogels treated with acetylcholine; format: cell-based
T1 construct: Parotid gland tissue was collected from patients aged 40-55 years undergoing surgery; endogenous in cells; host or cells: primary acinar-like cells (passage 3-4) from patients' parotid gland tissue, on 2.5D or in 3D HA hydrogels
Procedure: Intracellular calcium [Cai] release studies utilized the calcium indicator dye, Fluo-4 (Invitrogen). Cells were seeded at 1×10^5 cells/gel in cell culture inserts as before. Cells on 2.5D and in 3D hydrogels were cultured for 12 days. Fluo-4 was suspended in 0.8% (w/v) pluronic acid and mixed with 8 mL of 1× Hanks' balanced salt solution (HBSS) without calcium. Cell-seeded hydrogels were incubated with Fluo-4 suspended in pluronic acid for 30 min at 37° C. After 30 min, cells were washed twice with 1×HBSS, and incubated for 30 min in HBSS. After loading and recovery, hydrogels were imaged using a Zeiss LSM 5-live high-speed confocal microscope. Baseline fluorescence was established for 30 sec at 488 nm. Cell-seeded hydrogels then were treated with various concentrations (ranging from 50 μM-500 μM) of the muscarinic agonist acetylcholine chloride. 2.5D hydrogels were flipped so that cells were on the bottom of the chamber slides. 50 μL of the agonist was added to the bottom of the chamber containing 50 μL medium. 3D hydrogels were suspended in 100 μL of medium and treated with 100 μL of agonist. Resulting increases in Cai levels were captured in a series of image scans and by graph plot.
To stimulate fluid secretion, salivary acinar-like cells were treated with acetylcholine. Addition of 50 μM acetylcholine induced a robust calcium response in self-assembling acini-like structures cultured on 2.5D hydrogels (FIG. 27A). Acini-like structures on hydrogels were imaged without saline buffer to minimize movement of hydrogels in the liquid. The calcium response peak seen at ˜5 min can be attributed to the diffusion time needed by the neurotransmitter to pass through the hydrogel to the cells. Treatment with 100 μM acetylcholine produced calcium oscillations lasting over 20 min in multiple cells within a self-assembled acinus-like structure (FIG. 27B). Oscillations from different structures varied in intensity. […] Experiments were performed three times with each agonist concentration, on separate hydrogel cultures. Data were recorded from 3-4 acini-like structures each time. […] Positive controls used a hypotonic solution to induce a calcium response.
Treatment with 50 μM acetylcholine induced calcium oscillations that lasted over 20 minutes in spheroid structures encapsulated in 3D hydrogels (FIG. 27D). […] Compared to the response seen among 2.5D cultures, the increase in [Ca^2+] was quicker in 3D, where cells responded to acetylcholine treatment within 30 seconds while cells in 2.5D took nearly 300 seconds. […] Thus, cell response to acetylcholine agonist in 3D was faster, more intense, and more prolonged than cell response in 2.5D.

[2] = system: β adrenergic receptors; experiment: Exocytic granule production and α-amylase staining in salivary acinar-like cells on/in HA hydrogels; format: cell-based, human; details: 50 μM
Procedure: Cells seeded (1×10^5 cells/gel) on/in hydrogels were treated with varying concentrations (10 μM to 100 μM) of isoproterenol hydrochloride (Santa Cruz Biotechnology) and norepinephrine hydrochloride (Sigma), each of which induce granule production and exocytosis, for various time points from 15 min-2 h. After treatment, culture medium was removed and cells were fixed immediately with 100% methanol and stained with α-amylase for microscopic analysis. Functionality of salivary acinar-like cells was assessed by response to neurotransmitter agonists. Norepinephrine binding to the β adrenergic receptors activates the protein secretion pathway. In this study, the sympathomimetic β adrenergic agonists, norepinephrine and isoproterenol, were used to stimulate protein production and exocytosis. Salivary acinar-like cells cultured on/in hydrogels were treated with 50 μM isoproterenol for 15 min to 1 hr. After treatment, cells were immediately fixed and stained, then analyzed for granule formation and α-amylase expression. FIGS. 21-25 quantify the extent of amylase response, using the intensity of fluorescence staining as a surrogate. […] Exocytosing granules stained in red for α-amylase are seen budding out from the cell membrane in FIG. 21C, E, F. Granule production has been quantified in FIG. 26. Upon stimulation, acini-like structures in 3D also secreted α-amylase into the hydrogel (FIG. 21E, F). α-Amylase staining is quantified in FIGS. 23-25.

[3] = biological target: HP; details: read-out: Dissociation constant (Kd) of complex with HP; cited from earlier work
[4] = system: spheroids in 3D HA hydrogels; experiment: FGF7 treatment of spheroids in 3D HA hydrogels; format: cell-based, human; details: 25 ng/mL FGF7 daily for 10 d and 12 d
Procedure: FIG. 14 is a picture depicting organized spheroids. […] (a) Untreated cells at 20 d culture. (b,c) Spheroids treated with 25 ng/mL FGF7 daily for (b) 10 d and (c) 12 d.
Functional neotissue glands must advance beyond spherical lumen to initiate directional delivery of secretory products and recreate the differentiated roles of fluid producing acinar and fluid resorbing ductal cells. Recent work identified the specific roles of FGF7 and FGF10 in inducing ductal elongation and branching, respectively. These roles are tied to the cells' perceived gradients of each GF from a point source, defined by diffusion through ECM and controlled by their binding to HS (in Pln and other proteoglycans). […] When delivered through media, FGF7 may induce overall larger spheroids (as expected, when FGF7 is not delivered from a directional point source). […] HGPs are an optimal mechanism for directional controlled delivery of FGF7 and FGF10.

T1 sequence (P20309 whole entry): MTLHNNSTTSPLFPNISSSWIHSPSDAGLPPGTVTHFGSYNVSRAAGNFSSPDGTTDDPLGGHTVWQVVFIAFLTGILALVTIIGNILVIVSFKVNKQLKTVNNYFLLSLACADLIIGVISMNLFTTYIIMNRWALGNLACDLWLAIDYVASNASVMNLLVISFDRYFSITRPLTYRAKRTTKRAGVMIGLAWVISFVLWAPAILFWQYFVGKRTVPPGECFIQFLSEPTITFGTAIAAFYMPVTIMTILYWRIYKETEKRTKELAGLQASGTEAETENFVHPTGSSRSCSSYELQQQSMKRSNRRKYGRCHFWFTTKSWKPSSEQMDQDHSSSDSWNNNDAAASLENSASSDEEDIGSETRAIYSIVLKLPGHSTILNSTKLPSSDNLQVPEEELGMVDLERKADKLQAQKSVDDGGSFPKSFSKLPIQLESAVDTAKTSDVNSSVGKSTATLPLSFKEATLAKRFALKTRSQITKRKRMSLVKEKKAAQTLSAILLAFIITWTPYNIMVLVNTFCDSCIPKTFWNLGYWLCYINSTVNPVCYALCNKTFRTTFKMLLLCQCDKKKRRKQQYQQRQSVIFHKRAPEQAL

CC(=O)OCC[N+](C)(C)C.[Cl-] [ACh, acetylcholine chloride]
Average Peak Height (Intensity) ([1]; 2.5D hydrogel, 50 μM ACh): 58 ± 11
Average Peak Length ([1]; 2.5D hydrogel, 50 μM ACh): 42 ± 21 s
Percent Responders ([1]; 2.5D hydrogel, 50 μM ACh): 33%
Average Peak Height (Intensity) ([1]; 2.5D hydrogel, 100 μM ACh): 10 ± 3
Average Peak Length ([1]; 2.5D hydrogel, 100 μM ACh): 46 ± 9 s
Percent Responders ([1]; 2.5D hydrogel, 100 μM ACh): 22%
Time of calcium response peak ([1]; 2.5D hydrogels, 50 μM): ~5 min
Duration of calcium oscillations ([1]; 2.5D hydrogels, 100 μM): over 20 min
Calcium oscillations ([1]; 3D cultures, 100 μM): induced similar oscillations
Average Peak Height (Intensity) ([1]; 3D hydrogel, 50 μM ACh): 39 ± 6
Average Peak Length ([1]; 3D hydrogel, 50 μM ACh): 164 ± 8 s
Percent Responders ([1]; 3D hydrogel, 50 μM ACh): 43%
Average Peak Height (Intensity) ([1]; 3D hydrogel, 100 μM ACh): 14 ± 8
Average Peak Length ([1]; 3D hydrogel, 100 μM ACh): 180 ± 34 s
Percent Responders ([1]; 3D hydrogel, 100 μM ACh): 16%
Duration of calcium oscillations ([1]; 3D hydrogels, 50 μM): over 20 minutes
Time until cells responded with increase in [Ca2+] ([1]; cells in 2.5D): ~300 s
Time until cells responded with increase in [Ca2+] ([1]; cells in 3D): ≤ 30 s

CC(C)NCC(O)c1ccc(O)c(O)c1 (stereo not drawn) [isoproterenol, isoproterenol hydrochloride]
α-Amylase localisation ([2]; 15 min): α-amylase near the membrane periphery
Granule formation and α-amylase staining ([2]; 1 h, 2.5D and 3D): presence of granules and robust α-amylase staining

NC[C@H](O)c1ccc(O)c(O)c1 [norepinephrine, norepinephrine hydrochloride]
Secretory granules ([2]; 2.5D and 3D): displayed multiple secretory granules

VEGF
Kd [3]: 165 nM

B1: FGF7: heparin-binding growth factor (protein, UniProt P21781 32-194, looked up)
Fibroblast growth factor 7: CNDMTPEQMATNVNCSSPERHTRSYDYMEGGDIRVRRLFCRTQWYLRIDKRGKVKGTQEMKNNYNIMEIRTVAVGIVAIKGVESEFYLAMNKEGKLYAKKECNEDCNFKELILENHYNTYASAKWTHNGGEMFVALNQKGIPVRGKKTKKEQKTAHFLPMAIT
Kd [3]: 30 to 49 nM
Spheroid size [4]: increases spheroid size
